# Measurements published in publication PMC8213153 (PLoS ONE, 2021).
# Where two headings read alike, the source gives them in different places.
# Experiments:
# Type in all cases: cell-based
# [1] = system: SARS-CoV-2 virus; assay: microbe, parasite or virus in culture; conditions: for IC50: Severe acute respiratory syndrome coronavirus 2, Vero
# [2] = Cytotoxicity (MTT) assay of single and dual combinatory drugs; conditions: human; for CC50 at 48 h: CompuSyn, n = 3, read-out: CC50
# [3] = system: TNF-α; assay: TNF-α level of virus-infected Vero cells (ELISA)
# In short: (§1)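 Medium from treated virus-infected Vero cells centrifuged 3,500 rpm for 20 min; supernatants diluted 1:5 in water. Sandwich ELISA incubated 60 min at 37 °C, substrate 10 min at 37 °C; cytokine concentrations derived from OD against standard curves.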
# [4] = system: IL-6; assay: IL-6 level of virus-infected Vero cells (ELISA)
# In short: as §1
# [5] = system: IL-10; assay: IL-10 level of virus-infected Vero cells (ELISA)
# In short: as §1
# [6] = HYDROXYCHLOROQUINE-AZITHROMYCIN series, read-out: Cell Viability (%)
# [7] = HYDROXYCHLOROQUINE-DOXYCYCLINE series, read-out: Cell viability (%)
# [8] = HYDROXYCHLOROQUINE-FAVIPIRAVIR series, read-out: Cell Viability (%)
# [9] = HYDROXYCHLOROQUINE-LOPIRITO series, read-out: Cell Viability (%)
compound,measurement,setting,value
"CCN(CCO)CCCC(C)Nc1ccnc2cc(Cl)ccc12 (stereo not shown) [HCQ, Hydroxychloroquine]",Virus Titer,"[1]; 1 μg/mL, 24-h",38.64 viral protein fg/mL
same,Virus Titer,"[1]; 1 μg/mL, 72-h",37.69 viral protein fg/mL
same,Virus Titer,"[1]; 15 μg/mL, 48-h",37.86 viral protein fg/mL
same,Drug concentration that produced an undetected virus copy number,"[1]; MoI 0.04, at 24, 48, and/or 72 hours' incubation",37.5 µg/mL
same,IC50,"[1]; 24h, MoI 0.04",9.5 µg/mL
same,IC50,"[1]; 48h, MoI 0.04",4.7 µg/mL
same,IC50,"[1]; 72h, MoI 0.04",1.4 µg/mL
same,Results (virus detection),"[1]; at the drug concentration of the same line of Table 4, MoI 0.04","48, 72h virus undetected"
same,CC50 at 48 h,[2]; HCQ-AZI experiment (Fig 7),5940 µg/mL
same,CC50 at 48 h,[2]; HCQ-DOXY experiment (Fig 8),1500 µg/mL
same,CC50 at 48 h,[2]; HCQ-FAVI experiment (Fig 10),11.8 µg/mL
same,CC50 at 48 h,[2]; HCQ-LOPIRITO experiment (Fig 11),2.51 µg/mL
same,"viability at 48 h, 0.2 μg/mL",[2]; [6],85.6%
same,"viability at 48 h, 2 μg/mL",[2]; [6],91%
same,"viability at 48 h, 10 μg/mL",[2]; [6],94.4%
same,"viability at 48 h, 100 μg/mL",[2]; [6],46.6%
same,"viability at 48 h, 400 μg/mL",[2]; [6],68.6%
same,"viability at 48 h, 0.2 μg/mL",[2]; [7],97.1%
same,"viability at 48 h, 2 μg/mL",[2]; [7],97%
same,"viability at 48 h, 10 μg/mL",[2]; [7],98.9%
same,"viability at 48 h, 100 μg/mL",[2]; [7],62.1%
same,"viability at 48 h, 400 μg/mL",[2]; [7],56.9%
same,"viability at 48 h, 0.2 μg/mL",[2]; [8],51.5%
same,"viability at 48 h, 2 μg/mL",[2]; [8],81.9%
same,"viability at 48 h, 10 μg/mL",[2]; [8],93.7%
same,"viability at 48 h, 100 μg/mL",[2]; [8],13.3%
same,"viability at 48 h, 400 μg/mL",[2]; [8],9.5%
same,"viability at 48 h, 0.2 μg/mL",[2]; [9],35.9%
same,"viability at 48 h, 2 μg/mL",[2]; [9],61.7%
same,"viability at 48 h, 10 μg/mL",[2]; [9],81.4%
same,"viability at 48 h, 100 μg/mL",[2]; [9],33%
same,"viability at 48 h, 400 μg/mL",[2]; [9],7.4%
same,TNF-α,"[3]; 1 μg/mL, 24-h",4.21 ± 0.31 pg/mL
same,TNF-α,"[3]; 1 μg/mL, 72-h",548.17 ± 1.44 pg/mL
same,TNF-α,"[3]; 15 μg/mL, 72-h",411.10 ± 0.18 pg/mL
same,TNF-α,"[3]; 24, 48, and 72 hours, cell without concentration",No effects
same,TNF-α levels (in words),[3]; Table 5,no effects
same,IL-6,"[4]; 1 μg/mL, 24-h",15.91 ± 0.99 ng/L
same,IL-6,"[4]; 1 μg/mL, 48-h",36.41 ± 2.01 ng/L
same,IL-6,"[4]; 1 μg/mL, 72-h",47.64 ± 2.15 ng/L
same,IL-6,"[4]; 1 μg/mL, 24h",↘↘ (1 μg/mL; 24h)
same,IL-6,"[4]; 15 μg/mL, 24-h",15.91 ± 1.41 ng/L
same,IL-6,"[4]; 15 μg/mL, 48-h",36.41 ± 0.89 ng/L
same,IL-6,"[4]; 15 μg/mL, 72-h",39.80 ± 0.48 ng/L
same,IL-6 (in words),[4]; Table 5,reduced
same,IL-10,"[5]; 1 μg/mL, 24-h",15.36 ± 0.75 pg/mL
same,IL-10,"[5]; 1 μg/mL, 48-h",96.36 ± 0.71 pg/mL
same,IL-10,"[5]; 1 μg/mL, 72-h",329.79 ± 0.08 pg/mL
same,IL-10,"[5]; 15 μg/mL, 24-h",32.43 ± 1.19 pg/mL
same,IL-10,"[5]; 15 μg/mL, 72-h",258.02 ± 9.73 pg/mL
same,IL-10,"[5]; 15 μg/mL, 48h",↗↗ (15 μg/mL; 48h)
same,IL-10 levels (in words),[5]; Table 5,increased
